Patent US20240287046A1, “COMPOUNDS AND RADIOLIGANDS FOR TARGETING NEUROTENSIN RECEPTOR AND USES THEREOF” (Full-Life Technologies HK Limited, priority 2022, published 2024)

Target: human NTSR-1 (Homo sapiens (Human), UniProt P30989)
Experiment: radioligand competitive binding assay using ^177Lu labeled C-1 as reference radioligand
Conditions: Mean IC50 of C-1/Mean IC50 of the test compound
Protocol: The binding affinities of test compounds were determined by a radioligand competitive binding assay using ^177Lu labeled C-1 as the reference radioligand.
Briefly, 100 μL HT-29 cells expressing human NTSR-1 at a density of 1˜2×10^6 cells/mL were mixed with binding buffer (RPMI-1640 medium supplemented with 0.25% bovine serum albumin) in each well of the 96-well filter plate (Millipore). Then the cells in each well were incubated with ^177Lu—C-1 (0.55 μCi/well) and the test compound under 37° C. for 1 hr (n=3). After incubation, unbound ^177Lu—C-1 and the test compound in each well was removed by filtration using a Multiscreen vacuum manifold (Millipore) and the cells were further rinsed with the binding buffer for 5 times. The cells from each well were then collected and radioactivity of the cells in each well was individually measured by y counter (2480 WIZARD2, PerkinElmer). The best-fit IC50 value of test compounds (inhibitory concentration when 50% of the bound ^177Lu—C-1 on cells were displaced) were calculated by fitting the data with nonlinear regression using GraphPad Prism 8.0.1.

Chain of human NTSR-1 (P30989 whole entry): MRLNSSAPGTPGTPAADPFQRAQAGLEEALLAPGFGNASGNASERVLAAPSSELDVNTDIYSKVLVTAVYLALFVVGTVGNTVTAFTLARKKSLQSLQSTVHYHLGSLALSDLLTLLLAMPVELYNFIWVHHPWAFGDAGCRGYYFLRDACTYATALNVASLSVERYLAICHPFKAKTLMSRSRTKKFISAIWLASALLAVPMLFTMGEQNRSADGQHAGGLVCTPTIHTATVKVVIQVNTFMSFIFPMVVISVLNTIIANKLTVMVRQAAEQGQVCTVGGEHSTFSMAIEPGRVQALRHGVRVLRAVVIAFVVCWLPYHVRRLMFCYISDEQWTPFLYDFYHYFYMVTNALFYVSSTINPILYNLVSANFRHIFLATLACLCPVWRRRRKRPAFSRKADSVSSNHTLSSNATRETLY

| Relative Binding Affinity | Structure (SMILES) |
| --- | --- |
| 519.8 | COc1cccc(OC)c1-c1cc(C(=O)NC2(C(=O)O)C3CC4CC(C3)CC2C4)nn1-c1ccc(NCCCN(C)CCCNC(=O)COCCOCCNC(=O)CN2CCN(CC(=O)O)CCN(CC(=O)O)CCN(CC(=O)O)CC2)cc1C(C)C (centres unmarked) [Compound I-3, 2,2′,2″-(10-(19-((4-(3-((2-carboxyadamantan-2-yl)carbamoyl)-5-(2,6 dimethoxyphenyl)-1H-pyrazol-1-yl)-3-isopropylphenyl)amino)-16-methyl-2,11-dioxo-6,9-dioxa-3,12,16-triazanonadecyl)-1,4,7,10-tetraazacyclododecane-1,4,7-triyl)tracetic acid] |
| 538.2 | COc1cccc(OC)c1-c1cc(C(=O)NC2(C(=O)O)C3CC4CC(C3)CC2C4)nn1-c1ccc(N(C)CCCN(C)CCCN(C)C(=O)COCCOCCNC(=O)CN2CCN(CC(=O)O)CCN(CC(=O)O)CCN(CC(=O)O)CC2)cc1C(C)C (centres unmarked) [Compound I-4, 2,2′,2″-(10-(2-(4-(3-((2-carboxyadamantan-2-yl)carbamoyl)-5-(2,6-dimethoxyphenyl)-1H-pyrazol-1-yl)-3-isopropylphenyl)-6,10-dimethyl-11,20-dioxo-13,16-dioxa-2,6,10,19-tetraazahenicosan-21-yl)-1,4,7,10-tetraazacyclododecane-1,4,7-triyl)triacetic acid] |
